Results from patent publication US20150125915A1, “Method for Producing Lactic Acid” (Kao Corporation, priority 2012, published 2015).

Legend:
[1] = test system: Rhizopus oryzae JCM14625 strain (=NBRC 5384); experiment: LDH activity evaluation-1: mycelia prepared from spores in surfactant-supplemented PDB medium, LDH activity of fungus body extract; type: cell-based; settings: for LDH activity (relative value): 0.5% (w/v) surfactant in PDB medium at spore germination, LDH activity in the absence of the surfactant = 100; for LDH activity compared with control fungus bodies (in words): 0.5% (w/v) surfactant at spore germination, versus medium non-supplemented with the surfactant
Procedure: A loopful of a cryopreserved spore suspension sample (−80° C.) of a Rhizopus oryzae JCM14625 strain (=NBRC 5384) obtained from a culture collection Riken BioResource Center (BRC) was inoculated to a PDA medium (Difco Potato Dextrose Agar, manufactured by Becton, Dickinson and Company) and then statically cultured at 30° C. for from 7 to 10 days. After visual confirmation of hyphal growth and blackening at the ends of hyphae associated with sporulation, from 30 to 40 mL of saline was added thereto. Spores, together with hyphae, were collected into a 50-mL centrifugal tube with a lid (manufactured by Greiner bio-one) using a platinum loop and then vigorously mixed in the tube. The spore suspension thus mixed was filtered through 3GP100 cylindrical funnel-shaped glass filter (manufactured by Shibata Scientific Technology Ltd.). The resulting filtrate was used as a spore solution. The number of spores in the spore solution was measured using a hemocytometer (D=1/50 mm· 1/400 mm^2) after appropriate dilution with saline.
80 mL of a PDB medium non-supplemented or supplemented with 0.5% (w/v) (final concentration) of each surfactant described below was applied to a 200-mL baffled Erlenmeyer flask (manufactured by Asahi Glass Co., Ltd.). The Rhizopus oryzae spore suspension prepared in Production Example 1 was inoculated thereto at a dose of 1×10^3 spores/mL of the medium and then cultured at 27° C. for 3 days with stirring at 170 rpm. Since mycelia would remain on the filter, the cultures were filtered through a stainless sieve of 250 μm in mesh size (manufactured by AS ONE Corp.) sterilized in advance to recover fungus bodies onto the filter.
From3.0 to 4.0 g (wet weight) of the recovered fungus bodies was inoculated to 100 mL of an inorganic culture medium (composition: 10% glucose, 0.1% ammonium sulfate, 0.06% potassium dihydrogen phosphate, 0.025% magnesium sulfate heptahydrate, 0.009% zinc sulfate heptahydrate, and 5.0% calcium carbonate; all the concentrations mean % (w/v)) applied to a 500-mL Erlenmeyer flask, and then cultured at 27° C. for approximately 40 hours with stirring at 220 rpm. Subsequently, the cultures thus obtained by culture in the inorganic culture medium were filtered using a stainless screen filter holder (manufactured by EMD Millipore) sterilized in advance to recover fungus bodies onto the filter. On this filter holder, the fungus bodies were further washed with 100 mL of saline. The saline used in washing was removed by suction filtration. The obtained fungus bodies were used in the following LDH activity evaluation and evaluation of the ability to fermentatively produce lactic acid.
6.0 g of the wet fungus bodies of the genus Rhizopus obtained in Production Example 3 was inoculated to 40 mL of an inorganic culture medium for lactic acid production evaluation (composition: 8.0% glucose, 0.1% ammonium sulfate, 0.06% potassium dihydrogen phosphate, 0.025% magnesium sulfate heptahydrate, 0.009% zinc sulfate heptahydrate, and 5.0% calcium carbonate; all the concentrations mean % (w/v)) applied to a 200-mL Erlenmeyer flask, and then cultured at 35° C. with stirring at 170 rpm. After 4.5-hour culture of the fungus bodies of the genus Rhizopus with stirring, the fungus bodies were filtered using a stainless screen filter holder (manufactured by EMD Millipore) sterilized in advance to recover fungus bodies onto the filter. On this filter holder, the fungus bodies were further washed with 100 mL of saline. The saline used in washing was removed by suction filtration. 0.3 g of the obtained fungus bodies was recovered into a 3-mL disruption tube (manufactured by Yasui Kikai Corp.). Metal cone for 3 mL (manufactured by Yasui Kikai Corp.) was added to the tube, which was then capped and then frozen in liquid nitrogen. The frozen 3-mL disruption tube was applied to Multi-Beads Shocker (manufactured by Yasui Kikai Corp.). The fungus bodies were disrupted at 1700 rpm for 10 seconds.

[2] = test system: Rhizopus oryzae JCM14625 strain (=NBRC 5384); experiment: Evaluation of ability to produce lactic acid-1 (production rate of lactic acid); type: cell-based; settings: 0.5% (w/v) surfactant in PDB medium at spore germination; rate in the absence of the surfactant = 100
Procedure: Specifically, the mycelia of a fungus of the genus Rhizopus were prepared by the method of Production Example 2 using the surfactant and then grown by the method of Production Example 3. 6.0 g of the obtained wet fungus bodies of the genus Rhizopus was inoculated to 40 mL of an inorganic culture medium for lactic acid production evaluation (composition: 8.0% glucose, 0.1% ammonium sulfate, 0.06% potassium dihydrogen phosphate, 0.025% magnesium sulfate heptahydrate, 0.009% zinc sulfate heptahydrate, and 5.0% calcium carbonate; all the concentrations mean % (w/v)) applied to a 200-mL Erlenmeyer flask, and then cultured at 35° C. with stirring at 170 rpm. The supernatant of the culture medium was recovered every 2 hours from 30 minutes after the fungus body inoculation. Glucose and lactic acid were quantified by the procedures described later in Reference Example 1. A relative value of the production rate of lactic acid was determined on the basis of the calculation method described in Reference Example 2.
Glucose and lactic acid were quantified using an HPLC apparatus LaChrom Elite (manufactured by Hitachi High-Technologies Corp.). The analytical column used was a carbohydrate/organic acid analysis column HPX-87H (7.8 mm I.D.×30 cm, manufactured by Bio-Rad Laboratories, Inc.) connected with a guard column Cation H (4.6 mm I.D.×3.0 cm, manufactured by Bio-Rad Laboratories, Inc.). Elution was performed under conditions involving 10 mM sulfuric acid as an eluent, a flow rate of 0.85 mL/min, and a column temperature of 50° C. Glucose and lactic acid were detected using a differential refractive index detector (RI detector) and a UV detector (detection wavelength: 210 nm), respectively. The standard samples used were glucose (distributor code: 049-31165, manufactured by Wako Pure Chemical Industries Ltd.), and lithium L-lactate (product number: L2250, manufactured by Sigma-Aldrich Inc.). Quantification was performed on the basis of concentration calibration curves prepared using these standard samples.
The supernatant sample of each culture medium to be subjected to HPLC analysis was appropriately diluted in advance with 37 mM sulfuric acid and then applied to DISMIC-13cp (0.20 μm cellulose acetate membrane, manufactured by […] Group) or MULTI SCREEN MNHV45 (0.45 μm Durapore membrane, manufactured by EMD Millipore) to remove insoluble matter.
The concentration of lactic acid (unit: g of lactic acid/L of medium) in the supernatant sample of each culture medium was measured according to Reference Example 1 and divided by a time (unit: hr) required for change in lactic acid concentration to calculate the production rate of lactic acid per unit time (unit: g of lactic acid/L/hr). In addition, a relative value to the production rate of lactic acid under control conditions in each Production Example was determined.

[3] = Evaluation of foaming property by the inversion stirring method; type: physicochemical; settings: for Volume of foam (relative value): 0.5% (w/v) surfactant in PDB medium, 30 seconds after stirring, foam in the absence of the surfactant = 100; for Volume of foam relative to the volume of foam in the absence of the surfactant (in words): 0.5% (w/v) in PDB medium
Procedure: Each surfactant used in Test Example 2 was evaluated for its foaming properties by the inversion stirring method. 100 mL of a PDB medium non-supplemented or supplemented with 0.5% (w/v) (final concentration) of a surfactant was added to a graduated cylindrical container of 50 mm in diameter and then inversion-stirred for 300 seconds using a flat propeller while the propeller was inverted every 6 seconds at 1000 rpm. 30 seconds after the completion of stirring, the volume of foam in the medium was measured.

Row | Substance | LDH activity (relative value) [1] [relative value] | Production rate of lactic acid (relative value) [2] [relative value] | Volume of foam (relative value) [3] [relative value] | LDH activity compared with control fungus bodies (in words) [1] | Volume of foam relative to the volume of foam in the absence of the surfactant (in words) [3]
1 | Polyoxyethylene (3) lauryl ether | 170 | 203 | 250 |  | 
2 | Polyoxyethylene (20) sorbitan monolaurate | 148 | 137 | 1350 |  | 
3 | Polyoxyethylene (5) lauryl ether | 112 |  |  |  | 
4 | Polyoxyethylene (4) lauryl ether | 214 | 171 | 350 |  | 
5 | Polyoxyethylene (10) octyl phenyl ether | 178 | 254 | 2000 | higher LDH activity | 
6 | Sodium deoxycholate | 109 |  |  | higher LDH activity | 
7 | Polyoxyethylene (4) sorbitan monolaurate | 140 | 142 | 150 |  | twice or less
8 | Sorbitan monooleate | 135 | 113 | 100 | higher LDH activity | twice or less
9 | Polyoxyethylene (6) lauryl ether | 93 |  |  | slightly lower LDH activity | 
